Among the data in ChEMBL document CHEMBL5390323, “Novel IRAK4 Inhibitors for Treating Asthma, COPD, Cancer, Autoinflammatory Diseases, and Autoimmune Diseases” (ACS Med Chem Lett, 2023) are IC50 values, retold here.

This experiment addresses T1, Interleukin-1 receptor-associated kinase 4 (Homo sapiens, UniProt Q9NWZ3).
T1 sequence (Q9NWZ3 whole entry): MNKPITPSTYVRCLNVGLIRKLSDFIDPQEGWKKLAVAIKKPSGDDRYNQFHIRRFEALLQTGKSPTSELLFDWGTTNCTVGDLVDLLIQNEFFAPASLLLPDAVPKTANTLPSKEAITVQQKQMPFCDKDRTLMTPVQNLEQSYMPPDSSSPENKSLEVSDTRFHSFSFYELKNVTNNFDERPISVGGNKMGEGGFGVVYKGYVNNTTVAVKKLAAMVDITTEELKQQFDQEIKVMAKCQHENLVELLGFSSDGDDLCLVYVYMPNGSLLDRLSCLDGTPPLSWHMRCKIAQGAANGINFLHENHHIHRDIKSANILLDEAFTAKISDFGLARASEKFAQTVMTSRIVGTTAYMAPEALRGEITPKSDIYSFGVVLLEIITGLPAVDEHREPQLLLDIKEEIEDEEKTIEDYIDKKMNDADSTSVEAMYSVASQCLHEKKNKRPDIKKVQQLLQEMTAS
As to the kind of experiment: Inhibition of recombinant human full length his-tagged IRAK4 expressed in insect cells using KKARFSRFAGSSPSQSSMVAR as peptide substrate preincubated for 15 mins followed by substrate addition and measured after 2 hrs in presence of ATP by LC-MS/MS analysis.

Take `COc1cc2nn([C@H]3CC[C@H](n4ccnc4C(C)O)CC3)cc2cc1C(=O)Nc1cccn(C)c1=O` (stereo partly specified): the IC50 worked out at 0.5 nM.
